The text below walks through data of ChEMBL document CHEMBL1201862, “PubChem BioAssay data set” (2004).

Among the test systems are A549; ACHN; COLO 205; EKVX; HCC 2998; HL-60; HOP-62; HOP-92; KM12; Malme-3M; OVCAR-5; SNB-19; SNB-75; SW-620; TK-10; U-251.
Holding throughout (test): DTP human tumour cell line panel, 48 h

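A five-concentration, 48-hour dose response in 96-well plates underlies each endpoint, interpolated linearly between surrounding concentrations. Here, GI50 denotes the concentration required for 50% inhibition of growth.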 Calls of active or inactive are those of the source. No stated cut-off is given here; in the data, active = GI50 up to about 1.1 µM and inactive = higher. A value given as a limit tells only on which side of the number the result lay.

Regarding `CNC(=O)OCc1nccc2c(C)c3[nH]c4ccc(OC)cc4c3cc12`, the GI50 in the experiment with A549 is 4.9 µM (inactive); in the experiment with ACHN, 1.61 µM (inactive); in the experiment with COLO 205 it was 2.94 µM (inactive); with EKVX it was 16.7 µM (inactive); in the experiment on HCC 2998, 5.57 µM (inactive); in the experiment on HL-60 it was 2.58 µM (inactive). Also, the GI50 is 3.69 µM (inactive) with HOP-62; 10.6 µM (inactive) in the experiment on HOP-92; 3.78 µM (inactive) in the experiment with KM12; 7.98 µM (inactive) in the experiment with Malme-3M; 22 µM (inactive) in the experiment on OVCAR-5; 3.78 µM (inactive) in the experiment on SNB-19. The GI50 was 7.82 µM (inactive) with SNB-75, 3.03 µM (inactive) in the experiment with SW-620, 19.3 µM (inactive) in the experiment on TK-10 and 5.12 µM (inactive) in the experiment on U-251.

For `CCc1cccc(=O)c([O-])c1.CCc1cccc(=O)c([O-])c1.[Bi+3].[Cl-]`, the GI50 with A549 is 8.97 µM (inactive); with ACHN, 8.17 µM (inactive); in the experiment on COLO 205 it was 2.29 µM (inactive); in the experiment on EKVX, 13.8 µM (inactive); with HCC 2998, 5.93 µM (inactive); with HL-60 it was 2.54 µM (inactive). Also, the GI50 with HOP-62 was 11.6 µM (inactive); in the experiment on HOP-92 it was 12.9 µM (inactive); with KM12 it was 12.4 µM (inactive); with Malme-3M, 1.79 µM (inactive); in the experiment with OVCAR-5, 16.5 µM (inactive); in the experiment with SNB-19, 11 µM (inactive). Also, the GI50 is 17.6 µM (inactive) in the experiment on SNB-75, 3.23 µM (inactive) in the experiment with SW-620, 4.42 µM (inactive) in the experiment on TK-10 and 6.46 µM (inactive) in the experiment with U-251.

`NC1=NC(=O)/C(=C/c2ccccc2[N+](=O)[O-])C(N)=N1`: the GI50 in the experiment with A549, in the experiment with ACHN, with COLO 205, in the experiment with EKVX, in the experiment with HCC 2998 and in the experiment on HL-60 was > 100 µM (inactive) each time. The GI50 with HOP-62, with HOP-92, in the experiment on KM12, with Malme-3M, in the experiment on OVCAR-5 and with SNB-19 was > 100 µM (inactive) throughout. Moreover, the GI50 in the experiment on SNB-75, in the experiment on SW-620, with TK-10 and in the experiment on U-251 was > 100 µM (inactive) each time.

As to `C=CCN(CC=C)CC(C(C)=O)C(c1ccccc1)c1c(O)c2ccccc2oc1=O` (stereo not drawn), the GI50 with A549, in the experiment with ACHN, in the experiment on COLO 205, with EKVX, in the experiment on HCC 2998 and in the experiment with HL-60 was > 100 µM (inactive) throughout. The GI50 in the experiment with HOP-62 was > 100 µM (inactive); in the experiment on HOP-92, > 100 µM (inactive); in the experiment on KM12, 19 µM (inactive); in the experiment with Malme-3M it was > 100 µM (inactive); in the experiment with OVCAR-5, > 100 µM (inactive); with SNB-19, 15.6 µM (inactive). Moreover, the GI50 is 39.6 µM (inactive) in the experiment with SNB-75, > 100 µM (inactive) with SW-620, > 100 µM (inactive) in the experiment on TK-10 and > 100 µM (inactive) with U-251.

For the compound `CCOc1ccccc1NC(=O)CC1SC(Nc2ccc([N+](=O)[O-])cc2)=NC1=O` (stereo not drawn), the GI50 with A549 was 18.5 µM (inactive); in the experiment on ACHN it was 17.3 µM (inactive); in the experiment with COLO 205 it was 19.5 µM (inactive); in the experiment on EKVX, 27.5 µM (inactive); with HCC 2998, 16.4 µM (inactive); with HL-60, 32.6 µM (inactive). Further, the GI50 in the experiment on HOP-62 was 18.5 µM (inactive); in the experiment with HOP-92 it was 10.2 µM (inactive); in the experiment with KM12 it was 18.7 µM (inactive); in the experiment on Malme-3M, 22.5 µM (inactive); in the experiment with OVCAR-5, 29.1 µM (inactive); in the experiment with SNB-19, 29.3 µM (inactive). For the same compound, the GI50 with SNB-75 was 23.2 µM (inactive); with SW-620, 23.1 µM (inactive); in the experiment with TK-10, 25.4 µM (inactive); in the experiment on U-251, 14.3 µM (inactive).

In the case of `Cc1cccc(NC(=O)CC(=O)N2N=C(N(CCC#N)c3ccc(Cl)cc3)CC2c2ccccc2)c1` (stereo not drawn), the GI50 in the experiment with A549, in the experiment on ACHN, in the experiment with COLO 205, with HCC 2998, in the experiment on HL-60 and with HOP-62 was > 100 µM (inactive) throughout. In addition, the GI50 in the experiment with HOP-92, in the experiment on KM12, in the experiment on Malme-3M, in the experiment on OVCAR-5, in the experiment with SNB-19 and with SNB-75 was > 100 µM (inactive) each time. The GI50 with SW-620, in the experiment on TK-10 and in the experiment on U-251 was > 100 µM (inactive) throughout.

On to `COC(=O)N1C=CC2=C(C)C3Nc4ccccc4C3C(C)=C2C1` (stereo not drawn), for which the GI50 was 1.69 µM (inactive) with A549; 0.521 µM (active) in the experiment with ACHN; 1.15 µM (inactive) with COLO 205; 1.25 µM (inactive) in the experiment on EKVX; 1.95 µM (inactive) in the experiment on HCC 2998; 1.98 µM (inactive) with HL-60. For the same compound, the GI50 in the experiment on HOP-62 is 1.73 µM (inactive); with HOP-92 it was 2.09 µM (inactive); with Malme-3M, 3.03 µM (inactive); in the experiment with OVCAR-5, 2.72 µM (inactive); in the experiment with SNB-19 it was 2.97 µM (inactive); in the experiment with SNB-75, 2.24 µM (inactive). The concentration for 50% growth inhibition (GI50) in the experiment with SW-620 is 1.01 µM (active); in the experiment with TK-10, 1.66 µM (inactive); in the experiment with U-251 it was 3.1 µM (inactive).

For `CC1(C)C(=O)N(CCCCCCN2C(=O)C(C)(C)c3ccccc32)c2ccccc21`, the GI50 in the experiment with A549 was 43.4 µM (inactive); in the experiment with ACHN, 25.6 µM (inactive); in the experiment on COLO 205 it was 22.1 µM (inactive); with EKVX, 38.1 µM (inactive); in the experiment on HCC 2998, 71.6 µM (inactive); with HL-60, 2.04 µM (inactive). Moreover, the GI50 in the experiment with HOP-62 was 80.7 µM (inactive); with HOP-92, 42.8 µM (inactive); in the experiment with KM12 it was 37.9 µM (inactive); in the experiment on Malme-3M, 25.9 µM (inactive); in the experiment with OVCAR-5, 80.5 µM (inactive); in the experiment on SNB-19 it was 68.5 µM (inactive). For the same compound, the GI50 was 39.1 µM (inactive) in the experiment with SNB-75, 14.7 µM (inactive) with SW-620, 58.3 µM (inactive) in the experiment on TK-10 and 36.6 µM (inactive) in the experiment on U-251.

Turning to `CCOC(=O)C(=O)Nc1ccccc1C(C)C`, the GI50 in the experiment with A549, in the experiment on ACHN, with COLO 205, in the experiment with EKVX, with HCC 2998 and in the experiment with HL-60 was > 100 µM (inactive) each time. The GI50 in the experiment on HOP-62, in the experiment on HOP-92, in the experiment on KM12, in the experiment on Malme-3M, in the experiment with OVCAR-5 and in the experiment with SNB-19 was > 100 µM (inactive) in each case. In addition, the GI50 in the experiment on SNB-75, in the experiment on SW-620, with TK-10 and with U-251 was > 100 µM (inactive) each time.

Turning to `C1=C2/CC[C@H](Sc3ccccc3)[C@H]2C2(CCCCC/1)OCCO2`, the GI50 with A549 is 51.8 µM (inactive); with ACHN, 35.6 µM (inactive); in the experiment with COLO 205, 19.5 µM (inactive); in the experiment on EKVX, 18.5 µM (inactive); in the experiment on HCC 2998, 22.3 µM (inactive); in the experiment on HL-60, 22.2 µM (inactive). The GI50 in the experiment with HOP-62 was 40.4 µM (inactive); in the experiment with HOP-92, 18.6 µM (inactive); in the experiment with KM12, 29.9 µM (inactive); with Malme-3M it was 28.5 µM (inactive); in the experiment on OVCAR-5, 29.5 µM (inactive); with SNB-19, 36.9 µM (inactive). The GI50 is 27.9 µM (inactive) in the experiment with SNB-75, 29 µM (inactive) in the experiment with SW-620, > 100 µM (inactive) with TK-10 and 21.8 µM (inactive) in the experiment with U-251.

Take `COc1ccc(CN2C(=O)C(Cc3cc(OC)c(OC)c(C)c3OC)NC(=O)/C2=C/c2cc(OC)c(OC)c(C)c2OC)cc1` (stereo not drawn): the GI50 is 37.1 µM (inactive) with A549; 31.7 µM (inactive) with ACHN; 22.8 µM (inactive) in the experiment with COLO 205; 48.1 µM (inactive) with EKVX; 23.6 µM (inactive) in the experiment with HCC 2998; 18.3 µM (inactive) with HL-60. Also, the GI50 in the experiment on HOP-62 was 50.9 µM (inactive); in the experiment on HOP-92 it was 29 µM (inactive); in the experiment on KM12 it was 38.8 µM (inactive); with Malme-3M it was 22.6 µM (inactive); in the experiment with OVCAR-5, 44.9 µM (inactive); in the experiment on SNB-75, 33.5 µM (inactive). The GI50 is 33.9 µM (inactive) in the experiment on SW-620, 33.5 µM (inactive) with TK-10 and 37.2 µM (inactive) in the experiment with U-251.

For the compound `COC(=O)C1=CC2C=CC(C1C(=O)OC)C1C(C(=O)OC)=C(C(=O)OC)C(C(=O)OC)=C(C(=O)OC)C21OC` (stereo not drawn), the GI50 in the experiment on A549, in the experiment with ACHN, in the experiment with COLO 205, in the experiment on EKVX, with HCC 2998 and with HL-60 was > 100 µM (inactive) each time. In addition, the GI50 in the experiment on HOP-62, with HOP-92, in the experiment with Malme-3M, with OVCAR-5, in the experiment on SNB-75 and in the experiment with SW-620 was > 100 µM (inactive) throughout. The GI50 in the experiment with TK-10 and with U-251 was > 100 µM (inactive) in each case.

Consider `CCN(CC)CCCNc1nccc2c(C)c3[nH]c4ccncc4c(=O)c3cc12`, for which the GI50 is 3.01 µM (inactive) in the experiment on A549; 1.8 µM (inactive) in the experiment on ACHN; 2.55 µM (inactive) in the experiment with COLO 205; 5.68 µM (inactive) in the experiment with EKVX; 2.37 µM (inactive) in the experiment with HCC 2998; 2.79 µM (inactive) with HL-60. Also, the GI50 in the experiment on HOP-62 was 3.11 µM (inactive); in the experiment on HOP-92 it was 1.75 µM (inactive); in the experiment with KM12, 3.52 µM (inactive); in the experiment on Malme-3M, 3.83 µM (inactive); in the experiment on OVCAR-5 it was 3.72 µM (inactive); in the experiment with SNB-19, 2.87 µM (inactive). Moreover, the GI50 is 2.24 µM (inactive) in the experiment on SNB-75, 1.84 µM (inactive) in the experiment on SW-620, 3.18 µM (inactive) in the experiment on TK-10 and 2.19 µM (inactive) in the experiment on U-251.
